The record followed here is patent US8436178B2, “Imidazoquinolines with immuno-modulating properties” (AstraZeneca AB, priority 2007, dated 2013).

Molecules are shown by their SMILES. Where a name gives a salt, the structure may show the parent alone.

In the test the target is T1, human TLR7 (Homo sapiens, UniProt Q9NYK1).
T1 construct: expressed in transfected cells; host or cells: HEK293 cell line stably expressing the pNiFty2-SEAP reporter plasmid; TLR7 in pUNO vector, blasticidin selection
T1 sequence (Q9NYK1 27-1049): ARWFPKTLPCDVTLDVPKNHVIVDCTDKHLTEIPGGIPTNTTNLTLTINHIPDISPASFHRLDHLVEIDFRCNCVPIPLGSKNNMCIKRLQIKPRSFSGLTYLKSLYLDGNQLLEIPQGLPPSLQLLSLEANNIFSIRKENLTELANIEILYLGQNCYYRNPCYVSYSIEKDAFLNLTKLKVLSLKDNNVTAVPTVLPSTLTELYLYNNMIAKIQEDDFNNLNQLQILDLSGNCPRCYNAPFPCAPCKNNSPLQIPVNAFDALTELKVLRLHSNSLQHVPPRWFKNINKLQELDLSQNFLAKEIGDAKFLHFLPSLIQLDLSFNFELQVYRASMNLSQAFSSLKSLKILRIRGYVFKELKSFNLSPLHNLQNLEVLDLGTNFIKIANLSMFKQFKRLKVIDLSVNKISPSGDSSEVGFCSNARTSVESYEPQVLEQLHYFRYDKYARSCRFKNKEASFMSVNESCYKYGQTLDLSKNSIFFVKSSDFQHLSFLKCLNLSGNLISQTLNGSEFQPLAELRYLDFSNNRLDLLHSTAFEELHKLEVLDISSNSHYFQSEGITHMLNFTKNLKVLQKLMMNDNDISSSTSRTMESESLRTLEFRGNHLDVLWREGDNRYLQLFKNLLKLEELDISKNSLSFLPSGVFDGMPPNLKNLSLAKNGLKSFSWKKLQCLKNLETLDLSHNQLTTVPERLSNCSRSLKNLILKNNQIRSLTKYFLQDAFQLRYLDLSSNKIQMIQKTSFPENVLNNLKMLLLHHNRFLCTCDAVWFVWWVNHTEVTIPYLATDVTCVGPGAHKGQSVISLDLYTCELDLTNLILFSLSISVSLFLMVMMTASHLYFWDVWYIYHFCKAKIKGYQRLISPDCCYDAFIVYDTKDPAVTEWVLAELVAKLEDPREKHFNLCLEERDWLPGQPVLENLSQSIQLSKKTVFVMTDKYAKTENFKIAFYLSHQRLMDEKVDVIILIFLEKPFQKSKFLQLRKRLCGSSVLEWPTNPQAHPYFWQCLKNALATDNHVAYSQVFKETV
As to the kind of experiment: Human TLR7 assay (SEAP reporter in HEK293 cells). It counts as cell-based. The conditions noted are these: SEAP induction in HEK293 cells expressing human TLR7, overnight incubation at 37° C., 0.1% DMSO.
Description: The most common variant sequence of human TLR7 (represented by the EMBL sequence AF240467) was cloned into the mammalian cell expression vector pUNO and transfected into a HEK293 cell line already stably expressing the pNiFty2-SEAP reporter plasmid; integration of the reporter gene was maintained by selection with the antibiotic zeocin. Transfectants with stable TLR7 expression were selected using the antibiotic blasticidin. In this reporter cell-line, expression of secreted alkaline phosphatase (SEAP) is controlled by an NFkB/ELAM-1 composite promoter comprising five NFkB sites combined with the proximal ELAM-1 promoter. TLR signaling leads to the translocation of NFkB and activation of the promoter results in expression of the SEAP gene. TLR7-specific activation was assessed by determining the level of SEAP produced following overnight incubation of the cells at 37° C. with the standard compound in the presence of 0.1% (v/v) dimethylsulfoxide (DMSO). Concentration dependent induction of SEAP production by compounds was expressed as the concentration of compound which produced half of the maximal level of SEAP induction for that compound (pEC50).
For the compound `CCCCc1nc2c(N)nc3ccccc3c2n1CCCN(Cc1ccc(CC(=O)OC)cc1)C(=O)CN1CCC(CC(=O)OCC)CC1` [Example 27, Ethyl 2-(1-(2-((3-(4-amino-2-butyl-1H-imidazo[4,5-c]quinolin-1-yl)propyl)(4-(2-methoxy-2-oxoethyl)benzyl)amino)-2-oxoethyl)piperidin-4-yl)acetate], it took 39.8 nM to reach a half-maximal effect (EC50). The value for `CCCCc1nc2c(N)nc3ccccc3c2n1CCCN(Cc1ccc(CC(=O)OC)cc1)C(=O)CN1CCC(C(=O)OC)CC1` [Example 28, Methyl 1-(2-((3-(4-amino-2-butyl-1H-imidazo[4,5-c]quinolin-1-yl)propyl)(4-(2-methoxy-2-oxoethyl)benzyl)amino)-2-oxoethyl)piperidine-4-carboxylate] was 200 nM. The value for `COCCc1nc2c(N)nc3ccccc3c2n1CCCN(Cc1ccc(CC(=O)OC)cc1)C(=O)CN1CCCCC1` [Example 29, Methyl 2-(4-((N-(3-(4-amino-2-(2-methoxyethyl)-1H-imidazo[4,5-c]quinolin-1-yl)propyl)-2-(piperidin-1-yl)acetamido)methyl)phenyl)acetate] was 100 nM; that for `COCCc1nc2c(N)nc3ccccc3c2n1CCCN(Cc1ccc(CC(=O)OC)cc1)C(=O)CN(C)C` [Example 30, Methyl 2-(4-((N-(3-(4-amino-2-(2-methoxyethyl)-1H-imidazo[4,5-c]quinolin-1-yl)propyl)-2-(dimethylamino)acetamido)methyl)phenyl)acetate] was 200 nM; that for `COCCc1nc2c(N)nc3ccccc3c2n1CCCN(Cc1cccc(CC(=O)OC)c1)C(=O)CN1CCCCC1` [Example 31, Methyl 2-(3-((N-(3-(4-amino-2-(2-methoxyethyl)-1H-imidazo[4,5-c]quinolin-1-yl)propyl)-2-(piperidin-1-yl)acetamido)methyl)phenyl)acetate saccharin salt] was 158 nM. The value for `COCCc1nc2c(N)nc3ccccc3c2n1CCCN(Cc1ccc(CC(=O)OC)cc1)C(=O)CN(C)CCOC` [Example 32, Methyl 2-(4-((N-(3-(4-amino-2-(2-methoxyethyl)-1H-imidazo[4,5-c]quinolin-1-yl)propyl)-2-((2-methoxyethyl)(methyl)amino)acetamido)methyl)phenyl)acetate] was 158 nM; that for `COCCc1nc2c(N)nc3ccccc3c2n1CCCN(Cc1ccc(CC(=O)OC)cc1)C(=O)CCN1CCCCC1` [Example 33, Methyl 2-(4-((N-(3-(4-amino-2-(2-methoxyethyl)-1H-imidazo[4,5-c]quinolin-1-yl)propyl)-3-(piperidin-1-yl)propanamido)methyl)phenyl)acetate] was 158 nM; that for `COCCc1nc2c(N)nc3ccccc3c2n1CCCN(CCCN1CCOCC1)Cc1ccc(CC(=O)OC)cc1` [Example 34, Methyl 2-(4-(((3-(4-amino-2-(2-methoxyethyl)-1H-imidazo[4,5-c]quinolin-1-yl)propyl)(3-morpholinopropyl)amino)methyl)phenyl)acetate] was 316 nM. `COCCc1nc2c(N)nc3ccccc3c2n1CCCN(Cc1ccc(CC(=O)OC)cc1)C(=O)CN1CCCC1` [Example 37, Methyl 2-(4-((N-(3-(4-amino-2-(2-methoxyethyl)-1H-imidazo[4,5-c]quinolin-1-yl)propyl)-2-(pyrrolidin-1-yl)acetamido)methyl)phenyl)acetate disaccharin salt]: the EC50 (commonly the concentration giving half of the maximal effect) was 398 nM. The value for `COCCc1nc2c(N)nc3ccccc3c2n1CCCN(Cc1ccc(CC(=O)OC)cc1)C(=O)CN(C)CCO` [Example 38, Methyl 2-(4-((N-(3-(4-amino-2-(2-methoxyethyl)-1H-imidazo[4,5-c]quinolin-1-yl)propyl)-2-((2-hydroxyethyl)(methyl)amino)acetamido)methyl)phenyl)acetate disaccharin salt] was 1580 nM. For the compound `CCCCc1nc2c(N)nc3ccccc3c2n1CCCN(Cc1cccc(CC(=O)OC)c1)C(=O)CN(C)CCOC` [Example 39, Methyl 2-(3-((N-(3-(4-amino-2-butyl-1H-imidazo[4,5-c]quinolin-1-yl)propyl)-2-((2-methoxyethyl)(methyl)amino)acetamido)methyl)phenyl)acetate], the EC50 was 158 nM.

As for `CCCCc1nc2c(N)nc3ccccc3c2n1CCCN(Cc1cccc(CC(=O)OC)c1)C(=O)CN(C)CCCC` [Example 40, Methyl 2-(3-((N-(3-(4-amino-2-butyl-1H-imidazo[4,5-c]quinolin-1-yl)propyl)-2-(butyl(methyl)amino)acetamido)methyl)phenyl)acetate], the EC50 was 126 nM.

Regarding `CCCCc1nc2c(N)nc3ccccc3c2n1CCCN(Cc1cccc(CC(=O)OC)c1)C(=O)CN(CCC)CCC` [Example 41], the EC50 is 79.4 nM.

For `CCCCc1nc2c(N)nc3ccccc3c2n1CCCN(Cc1cccc(CC(=O)OC)c1)C(=O)CN(CCO)CCO` [Example 42, Methyl 2-(3-((N-(3-(4-amino-2-butyl-1H-imidazo[4,5-c]quinolin-1-yl)propyl)-2-(bis(2-hydroxyethyl)amino)acetamido)methyl)phenyl)acetate], the concentration giving a half-maximal response (EC50) was 1580 nM. The value for `CCCCc1nc2c(N)nc3ccccc3c2n1CCCN(Cc1cccc(CC(=O)OC)c1)C(=O)CN(C)C1CCOCC1` [Example 43, Methyl 2-(3-((N-(3-(4-amino-2-butyl-1H-imidazo[4,5-c]quinolin-1-yl)propyl)-2-(methyl(tetrahydro-2H-pyran-4-yl)amino)acetamido)methyl)phenyl)acetate] was 126 nM; that for `CCCCc1nc2c(N)nc3ccccc3c2n1CCCN(Cc1cccc(CC(=O)OC)c1)C(=O)CN1CCC1` [Example 44, Methyl 2-(3-((N-(3-(4-amino-2-butyl-1H-imidazo[4,5-c]quinolin-1-yl)propyl)-2-(azetidin-1-yl)acetamido)methyl)phenyl)acetate] was 251 nM. Then `CCCCc1nc2c(N)nc3ccccc3c2n1CCCN(Cc1cccc(CC(=O)OC)c1)C(=O)CN1CC(O)C1` [Example 45, Methyl 2-(3-((N-(3-(4-amino-2-butyl-1H-imidazo[4,5-c]quinolin-1-yl)propyl)-2-(3-hydroxyazetidin-1-yl)acetamido)methyl)phenyl)acetate], with 1580 nM.

Compound `CCCCc1nc2c(N)nc3ccccc3c2n1CCCN(Cc1cccc(CC(=O)OC)c1)C(=O)CN1CCCC1` [Example 46, Methyl 2-(3-((N-(3-(4-amino-2-butyl-1H-imidazo[4,5-c]quinolin-1-yl)propyl)-2-(pyrrolidin-1-yl)acetamido)methyl)phenyl)acetate] had a 50% effective concentration (EC50) of 63.1 nM. Then `CCCCc1nc2c(N)nc3ccccc3c2n1CCCN(Cc1cccc(CC(=O)OC)c1)C(=O)CN1CCC(O)C1` (centres unmarked) [Example 47, Methyl 2-(3-((N-(3-(4-amino-2-butyl-1H-imidazo[4,5-c]quinolin-1-yl)propyl)-2-(3-hydroxypyrrolidin-1-yl)acetamido)methyl)phenyl)acetate], with 398 nM. Then `CCCCc1nc2c(N)nc3ccccc3c2n1CCCN(Cc1cccc(CC(=O)OC)c1)C(=O)CN1CC[C@@H](O)C1` [Example 48, (R)-Methyl 2-(3-((N-(3-(4-amino-2-butyl-1H-imidazo[4,5-c]quinolin-1-yl)propyl)-2-(3-hydroxypyrrolidin-1-yl)acetamido)methyl)phenyl)acetate], with 398 nM.
